Data published in article PMC7810697, “Sarcolipin alters SERCA1a interdomain communication by impairing binding of both calcium and ATP” (Scientific Reports, 2021).
Where “and” joins values, the source holds several entries; their conditions need not be identical. Equal values may be shown once. One block for each compound: values may come before it. Ends that are not written are not given here.

What was measured:
[1] = tested on: recombinant purified SERCA1a (recS1a); experiment: Limited proteolysis with proteinase K (SDS-PAGE); type: biochemical, rabbit (expressed in S. cerevisiae); conditions: DDM-solubilized SR; 5 min profile similar to 60 min in native lipids
Method: Yeast-expressed and purified SERCA1a (recS1a) was supplemented with SLN at a mole:mole ratio of 1:10 recS1a:SLN. In absence of SLN, recS1a was supplemented with 0.07 mg/mL C12E8, an amount that corresponds to the detergent brought with chemically synthesized SLN. After 30 min at 20 °C, samples were supplemented with either 1.1 mM EGTA (Ca^2+free ~ 1 mM), or 50 mM EGTA (Ca^2+free ~ 150 nM) and 0.01 mg/mL Tg. After an additional incubation for 10 min at 20 °C, proteolysis was achieved by addition of 0.3 mg/mL proteinase K. Proteolysis was stopped by addition of 1 mM PMSF and incubation on ice for 10 min. After proteolysis arrest, samples were diluted twice in a 4 M-urea containing denaturation buffer, boiled for 60 s, and about 0.75 µg protein were loaded on a 9% SDS-PAGE prepared in the presence of 1 mM Ca^2+[32]. After electrophoresis, gels were stained with Coomassie blue.

[2] = molecular target: T1, recombinant SERCA1a (recS1a) (Oryctolagus cuniculus, UniProt P04191); experiment: Mg.ATP binding by tryptophan fluorescence; set-up: species or system rabbit (expressed in S. cerevisiae)
T1 construct: BAD (biotin acceptor domain) (C, cleaved yes); made in house; host or cells: Saccharomyces cerevisiae
Method: (§1) Intrinsic fluorescence of SERCA1a was measured with a SPEX Fluorolog spectrofluorometer (Horiba/Jobin–Yvon, Longjumeau, France) as described before. Briefly, signals were monitored with excitation and emission wavelength set at 295 and 320 nm, with bandwidths of 2 and 10 nm, respectively. Changes in tryptophan fluorescence were recorded at 20 °C after dilution of protein samples to a final concentration of about 6–7.5 µg/mL into a medium containing 50 mM MOPS-Tris pH 7, 100 mM KCl, 5 mM MgCl2, 20% glycerol (v/v) and 10 mg/mL DDM. In presence of SLN, recS1a and SLN were first mixed together and incubate for 1 h on ice before measurement. In absence of SLN, recS1a is supplemented with 0.07 mg/mL C12E8 to compensate the detergent present with SLN. The Maxchelator program was used for estimating [Ca^2+]free[59] (program available at https://somapp.ucdmc.ucdavis.edu/pharmacology/bers/maxchelator/downloads.htm). The dissociation constant of the Ca.EGTA complex was taken to be 0.4 µM at pH7 and was assumed to be the same in the presence of glycerol.

[3] = molecular target: T1, recombinant SERCA1a (recS1a); experiment: Steady-state ATPase activity, enzyme-coupled assay; type: biochemical, rabbit (expressed in S. cerevisiae); conditions: absence of pSLN; steady state, NADH-coupled assay; three independent experiments
Method: resuspended in a large volume of pure water and lyophilized to evaporate most of the TFA. The rinsed powder was then suspended in presence of 10 mM HCl to exchange the anionic residual TFA that may interact with the positive charges of the peptide for chloride. This suspension was lyophilized again.
Three additional cycles of – dissolving in pure water / lyophilisation – will allow to eliminate traces of TFA and to get back to a pH compatible with functional tests. For final solubilisation of SLN in detergent, powder was then dissolved in 50% TFE and an amount of detergent to reach a 100:1 mole:mole detergent:SLN ratio. Here, we used C12E8 as it is fully compatible with functional characterization of SERCA1a 23. This suspension was then lyophilized again to evaporate TFE.
Sarcolipins (Palm-SLN or SLN) were finally resuspended at 0.8 mg/mL (about 200 µM) in a 10 mM potassium phosphate buffer pH 7.4, in the presence of 2.5 mg/mL C12E8.
Expression and Purification of recombinant SERCA1a (recS1a)
The yeast expression plasmid pYeDP60-SERCA1a-BAD (WT) and expression in Saccharomyces cerevisiae was described previously 30. Yeast membranes were solubilized by DDM for subsequent purification of recombinant Ca2+-ATPase by Streptavidin affinity chromatography 31. Purified recombinant SERCA1a was recovered in a buffer containing 50 mM MOPS-Tris pH7, 100 mM KCl, 5 mM MgCl2, 2.1 mM CaCl2, 40 % glycerol (v/v) and 0.5 mg/mL DDM, together with some thrombin remaining from the elution procedure. The protein concentration in the purified fraction was in the 0.05 to 0.15 mg/mL range depending on the batch. […]
Steady-state ATPase activity measurements
Measurements were performed using classical enzyme coupled assay. We measured the rate of NADH oxidation in the presence of 0.1 mg/mL lactate deshydrogenase, 0.05 mg/mL pyruvate kinase, 1 mM phosphoenolpyruvate, 0.25 mM NADH (protocol was adapted from 22) and in the additional presence of 2 mg/mL C12E8 to limit time-dependent inactivation of the purified SERCA1a 20,23.

[4] = molecular target: T1, recombinant SERCA1a (recS1a); experiment: Calcium binding at equilibrium by tryptophan fluorescence; set-up: species or system rabbit (expressed in S. cerevisiae); conditions: absence of pSLN, average of three independent experiments
Method: as §1

[5] = molecular target: T1, recombinant SERCA1a (recS1a); experiment: Calcium dependence of phosphoenzyme level; type: biochemical, rabbit (expressed in S. cerevisiae); conditions: absence of pSLN, five independent experiments
Method: (§2) Transient formation of the phosphoenzyme intermediate was measured after incubation with [γ^32P]ATP followed by acid quenching, and filtration. For most experiments, 50 µL of enzyme at 10 µg/mL in a buffer containing 50 mM Tes-Tris pH7.5, 1 mM KCl, 5 mM MgCl2, 20% glycerol (w/w) and 0.5 mg/mL DDM, supplemented or not with SLN, was stored on ice. Concentrations of EGTA and calcium are specified in figure legends in order to reach the appropriate [Ca^2+]free and therefore the desired starting state for the ATPase. For kinetics of phosphorylation, we initiate reaction by addition of 2 µM [γ^32P]ATP (5 mCi/µmole), and calcium at 100 µM when specified. Reaction was quenched by addition of 2 mL of cold quenching medium (500 mM TCA + 30 mM H3P0_4) under vigorous mixing, and immediately stored on ice for 20–30 min to improve precipitation, a period of time critical for retention of the precipitate on the filter in presence of detergent. This was followed by filtration on GS filters (Millipore, Saint Quentin-Fallavier, France) and careful rinsing of the filters with diluted quenching medium (50 mM TCA + 3 mM H3P0_4). The amount of radioactivity bound to the filter was estimated by liquid scintillation counting (Perkin Elmer TriCarb Counter). When starting from a calcium-deprived state (Fig. 4C,D), EGTA was added only one minute before starting phosphorylation to limit irreversible inactivation of the solubilized ATPase, although the presence of glycerol helps in protecting the enzyme from irreversible inactivation. For dephosphorylation kinetics, 1 mM “cold” Mg.ATP was added after a 30 s period of phosphorylation. For Ca^2+-dependency, we adjust the concentration of free calcium according to the Ca.EGTA constant as mentioned above, before triggering phosphorylation. […] Phosphorylations were done at 0 °C especially for inhibition by vanadate to prevent dissociation of vanadate and limit irreversible inactivation in absence of calcium.

[6] = molecular target: T1, recombinant SERCA1a (recS1a); experiment: Vanadate inhibition of phosphoenzyme formation, recS1a; type: biochemical, rabbit (expressed in S. cerevisiae); conditions: absence of pSLN, phosphorylation 30 s at 0 °C, three independent experiments
Method: as §2

SERCA1a [7] = conditions: cited from earlier work
From the text: (§3) Besides its various roles in protein signalling and addressing, palmitoylation can also regulate oligomerisation processes of membrane proteins. Recent work has shown that other P-type ATPases regulatory subunits like phospholamban (PLB) and phospholemman (PLM) are palmitoylated[16],[17]. Acylation of PLB and PLM is functionally relevant by having an impact on the oligomerisation of the peptides, their association with their dedicated pumps (Ca^2+-ATPase or Na+, K+-ATPase, respectively) and on their lifetime.

[8] = tested on: protein phosphatase 1a (PP1a); conditions: cited from earlier work
From the text: as §3

protein kinase A (PKA) = conditions: cited from earlier work
From the text: as §3

SERCA1a [9] = conditions: deacylation with hydroxylamine; steady state; in membrane or after solubilization by C12E8; cited from earlier work
From the text: Effect on the turnover is less clear as it seems to highly depend on the system used for functional characterization. […] This post-translational modification is also present in pig SLN and presumably in a few other mammals and birds, as judged from the amino-acid sequences. Among the other hundred seq ...

T1 sequence (P04191 1-994 isoform P04191-2): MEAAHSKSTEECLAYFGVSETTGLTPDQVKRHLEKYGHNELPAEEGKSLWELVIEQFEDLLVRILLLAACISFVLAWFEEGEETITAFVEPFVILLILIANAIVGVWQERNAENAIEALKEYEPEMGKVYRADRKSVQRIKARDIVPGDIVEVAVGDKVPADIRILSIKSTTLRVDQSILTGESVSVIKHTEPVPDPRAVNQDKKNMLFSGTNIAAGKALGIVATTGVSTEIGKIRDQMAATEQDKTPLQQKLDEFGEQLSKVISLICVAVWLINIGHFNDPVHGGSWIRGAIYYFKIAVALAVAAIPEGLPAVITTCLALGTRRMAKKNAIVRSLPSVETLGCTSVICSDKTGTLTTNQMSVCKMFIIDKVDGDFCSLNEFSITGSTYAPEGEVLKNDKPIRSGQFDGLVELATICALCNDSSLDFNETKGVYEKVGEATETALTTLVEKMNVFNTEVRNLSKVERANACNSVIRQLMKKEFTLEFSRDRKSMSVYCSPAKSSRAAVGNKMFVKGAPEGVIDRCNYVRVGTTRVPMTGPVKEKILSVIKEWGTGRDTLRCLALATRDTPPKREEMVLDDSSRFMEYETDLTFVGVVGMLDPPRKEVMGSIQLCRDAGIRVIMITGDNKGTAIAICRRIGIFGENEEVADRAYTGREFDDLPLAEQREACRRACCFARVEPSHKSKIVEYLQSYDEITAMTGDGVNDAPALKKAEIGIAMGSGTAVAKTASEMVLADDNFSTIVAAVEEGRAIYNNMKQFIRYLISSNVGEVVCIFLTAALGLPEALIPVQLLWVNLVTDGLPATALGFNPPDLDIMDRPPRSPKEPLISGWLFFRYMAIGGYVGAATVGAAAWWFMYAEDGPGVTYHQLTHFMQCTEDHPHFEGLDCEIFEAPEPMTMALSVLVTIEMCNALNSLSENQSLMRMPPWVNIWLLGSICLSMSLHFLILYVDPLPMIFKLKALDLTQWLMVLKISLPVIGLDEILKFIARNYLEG

- effect of detergent on proteinase K proteolysis [1]: significantly accelerates proteolysis
Compound: CCCCCCCCCCCCO[C@@H]1O[C@H](CO)[C@@H](O[C@H]2O[C@H](CO)[C@@H](O)[C@H](O)[C@H]2O)[C@H](O)[C@H]1O [DDM, n-dodecyl β-D-maltopyranoside, reference compound]

- Mg-ATP1/2 (affinity for Mg.ATP), recS1a alone ([2]; absence of pSLN, calcium-deprived (2 mM EGTA), pH 7, 20 °C, DDM, 20% glycerol, three independent experiments): 3 µM and 3.00 ± 0.12 µM
- nH for Mg.ATP, recS1a alone ([2]; absence of pSLN, three independent experiments): 0.99 ± 0.04
- Mg.ATP concentration sufficient to saturate the SERCA1a site ([2]; in absence of SLN, not in its presence): about 30 µM
Compound: Nc1ncnc2c1ncn2[C@@H]1O[C@H](COP(=O)(O)OP(=O)([O-])OP(=O)([O-])O)[C@@H](O)[C@H]1O.[Mg+2] [Mg.ATP, reference compound]

- K1/2 (K0.5) for vanadate inhibition, recS1a alone [6]: 1.43 ± 0.08 µM
- K1/2 (K0.5) for vanadate inhibition, recS1a alone ([6]; listed as vanadate): 1.43 ± 0.08 µM
Compound: [O]=[V]([O-])([O-])[O-] [orthovanadate, reference compound]

Further lines, the compound ahead of its results:

Compound: [Ca+2] [calcium]
- Ca1/2 (ATPase activity), recS1a alone [3]: 0.15 ± 0.08 µM
- Ca1/2 (tryptophan fluorescence), recS1a alone ([4]; at equilibrium, pH 7, 20 °C, DDM, 20% glycerol): 2.94 ± 0.30 µM and 2.9 µM
- nH for calcium (tryptophan fluorescence), recS1a alone [4]: 1.67+/-0.25
- nH for calcium (phosphoenzyme level), recS1a alone [5]: 0.54 ± 0.02
- Ca1/2 (phosphoenzyme level), recS1a alone ([5]; phosphorylation 15 s): 0.33 ± 0.03 µM and 0.33 µM

Compound: PLB: phospholamban, 52 amino-acid long, with a transmembrane helix and a long cytosolic extension
- effect of PLB phosphorylation on SERCA1a inhibition (SERCA1a [7]): release of SERCA1a inhibition without its full dissociation from the pump
- effect of PLB palmitoylation (Cys 36) on PP1a affinity [8]: reduces affinity for protein phosphatase 1a (PP1a)
- effect of PLB palmitoylation (Cys 36) on PKA affinity (protein kinase A (PKA)): increases affinity for protein kinase A (PKA)

Compound: native SLN: native rabbit sarcolipin, S-palmitoylated or S-oleoylated on Cys9, co-purified with SERCA1a from SR (MERSTRELCLNFTVVLITVILIWLLVRSYQY; also: Cys9 S-palmitoylated or S-oleoylated; UniProt P42532 1-31, looked up)
- effect of deacylation of native SLN on affinity for calcium and Vmax (SERCA1a [9]): no effect
